Test results published in patent publication US9527832B2, “Substituted condensed pyrimidine compounds” (GRÜNENTHAL GMBH, priority 2013, dated 2016).
“And” between values parts separate entries of the source, which are not always exact repeats. Equal entries are not always repeated.

Target: T1, human PDE4B1 (Homo sapiens, UniProt Q07343)
T1 construct: host or cells: Sf9 cells
Assay: cAMP HTRF assay to determine the activity of hPDE4B1
Format: biochemical
Details: for inhibition at 1 µM: Percentage inhibition of PDE4B at 1 μM test concentration; for IC50: dose response measurements with eight concentrations, reported as ranges, read-out: IC50
Method in brief: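 Sf9-expressed recombinant human PDE4B1 (4.8 U) in Tris-HCl/MgCl2/DTT/Tween 20 buffer pH 7.8, with cAMP at 40 nM final, 30 min at room temperature. Reaction stopped with IBMX 1 mM; remaining cAMP detected by HTRF (665/620 nm ratio). IC50 from eight-point dose-response, n=2.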

T1 sequence (Q07343 whole entry): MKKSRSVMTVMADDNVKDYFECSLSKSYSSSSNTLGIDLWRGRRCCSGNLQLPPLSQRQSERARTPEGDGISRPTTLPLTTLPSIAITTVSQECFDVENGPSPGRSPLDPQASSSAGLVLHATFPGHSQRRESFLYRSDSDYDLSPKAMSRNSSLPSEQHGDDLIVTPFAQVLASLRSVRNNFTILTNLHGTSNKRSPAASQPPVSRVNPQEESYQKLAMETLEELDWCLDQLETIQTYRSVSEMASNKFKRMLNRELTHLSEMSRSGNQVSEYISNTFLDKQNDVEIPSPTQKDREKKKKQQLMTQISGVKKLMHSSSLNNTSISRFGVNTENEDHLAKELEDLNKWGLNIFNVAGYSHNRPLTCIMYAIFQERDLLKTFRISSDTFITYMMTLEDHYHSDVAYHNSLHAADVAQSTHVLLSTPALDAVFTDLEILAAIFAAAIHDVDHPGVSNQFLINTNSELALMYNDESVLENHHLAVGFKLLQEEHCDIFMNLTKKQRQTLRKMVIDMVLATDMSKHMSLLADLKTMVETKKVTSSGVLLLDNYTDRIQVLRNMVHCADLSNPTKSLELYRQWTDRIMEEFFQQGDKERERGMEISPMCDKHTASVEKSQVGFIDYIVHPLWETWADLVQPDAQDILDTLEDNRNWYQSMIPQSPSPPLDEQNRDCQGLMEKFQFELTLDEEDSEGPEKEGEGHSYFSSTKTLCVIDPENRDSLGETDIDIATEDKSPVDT

Compound	inhibition at 1 µM [%]	IC50
O=C(O)Cc1ccc2c(c1)CCN2c1nc(-c2ccc(Cl)s2)nc2c1CCCC2 [Compound No. 1-50, 2-(1-(2-(5-Chlorothiophen-2-yl)-5,6,7,8-tetrahydroquinazolin-4-yl)indolin-5-yl)acetic acid]	76	100 to 1000 nM
COc1cc(-c2nc3c(c(N4CCc5ccc(OCC(=O)N(C)C)cc54)n2)C[S+]([O-])C3)ccc1Cl (centres unmarked) [2-111, 2-[[1-[2-(4-Chloro-3-methoxy-phenyl)-6-oxo-5,7-dihydro-thieno[3,4-d]pyrimidin-4-yl]-2,3-dihydro-1H-indol-6-yl]oxy]-N,N-dimethyl-acetamide]	72	100 to 1000 nM
CN(C)C(=O)COc1ccc2c(c1)N(c1nc(-c3ccc(O)c(F)c3)nc3c1C[S+]([O-])C3)CC2 (centres unmarked) [Compound No. 2-79, 2-((1-(2-(3-Fluoro-4-hydroxyphenyl)-6-oxido-5,7-dihydrothieno[3,4-d]pyrimidin-4-yl)indolin-6-yl)oxy)-N,N-dimethylacetamide]	92	< 100 nM
COc1ccc(-c2nc3c(c(N4CCc5cc(CC(=O)O)ccc54)n2)CCC3)cc1Cl [Compound No. 1-2, 2-(1-(2-(3-Chloro-4-methoxyphenyl)-6,7-dihydro-5H-cyclopenta[d]-pyrimidin-4-yl)indolin-5-yl)acetic acid]	91	< 100 nM
CN(C)C(=O)COc1ccc2c(c1)N(c1nc(-c3ccc(C#N)c(F)c3)nc3c1C[S+]([O-])C3)CC2 (centres unmarked) [Compound No. 2-77, 2-((1-(2-(4-Cyano-3-fluorophenyl)-6-oxido-5,7-dihydrothieno[3,4-d]pyrimidin-4-yl)indolin-6-yl)oxy)-N,N-dimethylacetamide]	92	< 100 nM
COc1ccc(-c2nc3c(c(N4CCc5cc(CC(=O)O)ccc54)n2)CCCC3)cc1Cl [Compound No. 1-39, 2-(1-(2-(3-Chloro-4-methoxyphenyl)-5,6,7,8-tetrahydroqiuinazolin-4-yl)indolin-5-yl)acetic acid]	63	100 to 1000 nM
O=C(COc1ccc2c(c1)N(c1nc(-c3ccc(Cl)s3)nc3c1CS(=O)(=O)C3)CC2)NC1CC1 [Compound No. 2-61, 2-((1-(2-(5-Chlorothiophen-2-yl)-6,6-dioxido-5,7-dihydrothieno[3,4-d]pyrimidin-4-yl)indolin-6-yl)oxy)-N-cyclopropylacetamide]	60	< 100 nM
COC(=O)COc1ccc2c(c1)N(c1nc(-c3ccc(Cl)s3)nc3c1CCC3)CC2 [Compound No. 1-79, Methyl 2-((1-(2-(5-chlorothiophen-2-yl)-6,7-dihydro-5H-cyclopenta[d]pyrimidin-4-yl)indolin-6-yl)oxy)acetate]	88	100 to 1000 nM
CN(C)C(=O)COc1ccc2c(c1)N(c1nc(-c3ccccc3C#N)nc3c1C[S+]([O-])C3)CC2 (centres unmarked) [2-103, 2-[[1-[2-(2-Cyano-phenyl)-6-oxo-5,7-dihydro-thieno[3,4-d]pyrimidin-4-yl]-2,3-dihydro-1H-indol-6-yl]oxy]-N,N-dimethyl-acetamide]	91	100 to 1000 nM
CN(C)C(=O)COc1ccc2c(c1)N(c1nc(-c3ccc(S(C)(=O)=O)cc3)nc3c1C[S+]([O-])C3)CC2 (centres unmarked) [2-106, N,N-Dimethyl-2-[[1-[2-(4-methylsulfonyl-phenyl)-6-oxo-5,7-dihydro-thieno[3,4-d]pyrimidin-4-yl]-2,3-dihydro-1H-indol-6-yl]oxy]-acetamide]	104	< 100 nM
CN(C)C(=O)COc1ccc2c(c1)N(c1nc(-c3cccnc3)nc3c1C[S+]([O-])C3)CC2 (centres unmarked) [Compound No. 2-137, N,N-Dimethyl-2-((1-(6-oxido-2-(pyridin-3-yl)-5,7-dihydrothieno[3,4-d]pyrimidin-4-yl)indolin-6-yl)oxy)acetamide]	97	< 100 nM
CN(C)C(=O)COc1ccc2ncn(-c3nc(-c4ccc(Cl)s4)nc4c3C[S+]([O-])C4)c2c1 (single isomer, unassigned) [Compound No. 2-74, 2-((1-(2-(5-Chlorothiophen-2-yl)-6-oxido-5,7-dihydrothieno[3,4-d]pyrimidin-4-yl)-1H-benzo[d]imidazol-6-yl)oxy)-N,N-dimethylacetamide]	80	100 to 1000 nM
O=C(O)Cc1ccc2c(c1)CCN2c1nc(-c2ccc3occc3c2)nc2c1C[S+]([O-])C2 (centres unmarked) [Compound No. 1-81, 2-(1-(2-(Benzofuran-5-yl)-6-oxido-5,7-dihydrothieno[3,4-d]pyrimidin-4-yl)indolin-5-yl)acetic acid]	106	< 100 nM
O=C(COc1ccc2c(c1)N(c1nc(-c3ccc(Cl)s3)nc3c1CS(=O)(=O)C3)CC2)N1CCOCC1 [Compound No. 2-125, 2-((1-(2-(5-Chlorothiophen-2-yl)-6,6-dioxido-5,7-dihydrothieno[3,4-d]pyrimidin-4-yl)indolin-6-yl)oxy)-1-morpholinoethanone]	85	< 100 nM
COc1ccc(-c2nc3c(c(N4CCc5cc(CC(=O)O)ccc54)n2)CCC3)cc1 [Compound No. 1-3, 2-(1-(2-(4-Methoxyphenyl)-6,7-dihydro-5H-cyclopenta[d]pyrimidin-4-yl)indolin-5-yl)acetic acid]	83	< 100 nM
COc1ccc(-c2nc3c(c(-n4ncc5cc(CC(=O)O)ccc54)n2)CCC3)cc1F [Compound No. 1-60, 2-(1-(2-(3-Fluoro-4-methoxyphenyl)-6,7-dihydro-5H-cyclopenta[d]-pyrimidin-4-yl)-1H-indazol-5-yl)acetic acid]	67	100 to 1000 nM
Cc1cccc(-c2nc3c(c(N4CCc5ccc(OCC(=O)N(C)C)cc54)n2)C[S+]([O-])C3)c1 (centres unmarked) [2-95, N,N-Dimethyl-2-[[1-(2-m-tolyl-6-oxo-5,7-dihydro-thieno[3,4-d]pyrimidin-4-yl)-2,3-dihydro-1H-indol-6-yl]oxy]-acetamide]	113	< 100 nM
COc1ccc(-c2nc3c(c(N4CCc5ccc(OCC(=O)N(C)C)cc54)n2)CS(=O)(=O)C3)nc1 [Compound No. 2-143, 2-((1-(2-(5-Methoxypyridin-2-yl)-6,6-dioxido-5,7-dihydrothieno[3,4-d]pyrimidin-4-yl)indolin-6-yl)oxy)-N,N-dimethylacetamide]	87	100 to 1000 nM and < 100 nM
O=C(O)Cc1ccc2c(c1)CCN2c1nc(-c2cc(Cl)cs2)nc2c1CCC2 [Compound No. 1-18, 2-(1-(2-(4-Chlorothiophen-2-yl)-6,7-dihydro-5H-cyclopenta[d]pyrimidin-4-yl)indolin-5-yl)acetic acid]	92	< 100 nM
O=C(COc1ccc2c(c1)N(c1nc(-c3ccc(F)s3)nc3c1C[S+]([O-])C3)CC2)N1CCCC1 (centres unmarked) [Compound No. 2-120, 2-((1-(2-(5-Fluorothiophen-2-yl)-6-oxido-5,7-dihydrothieno[3,4-d]pyrimidin-4-yl)indolin-6-yl)oxy)-1-(pyrrolidin-1-yl)ethanone]	116	
O=C(O)Cc1ccc2c(c1)CCN2c1nc(-c2ccc(F)s2)nc2c1CCC2 [Compound No. 1-15, 2-(1-(2-(5-Fluorothiophen-2-yl)-6,7-dihydro-5H-cyclopenta[d]pyrimidin-4-yl)indolin-5-yl)acetic acid]	100	< 100 nM
O=C(COc1ccc2c(c1)N(c1nc(-c3ccc(Cl)s3)nc3c1C[S+]([O-])C3)CC2)N1CCC1 (centres unmarked) [Compound No. 2-122, 1-(Azetidin-1-yl)-2-((1-(2-(5-chlorothiophen-2-yl)-6-oxido-5,7-dihydrothieno[3,4-d]pyrimidin-4-yl)indolin-6-yl)oxy)ethanone]	40	
O=C(COc1ccc2c(c1)N(c1nc(-c3ccc(Cl)s3)nc3c1CCC3)CC2)NC1COC1 [Compound No. 2-65, 2-((1-(2-(5-Chlorothiophen-2-yl)-6,7-dihydro-5H-cyclopenta[d]pyrimidin-4-yl)indolin-6-yl)oxy)-N-(oxetan-3-yl)acetamide]	5	
CN(C)C(=O)COc1ccc2c(c1)N(c1nc(-c3ccc(F)s3)nc3c1CCC3)CC2 [Compound No. 2-46, 2-((1-(2-(5-Fluorothiophen-2-yl)-6,7-dihydro-5H-cyclopenta[d]pyrimidin-4-yl)indolin-6-yl)oxy)-N,N-dimethylacetamide]	94	< 100 nM
CN(C)C(=O)COc1ccc2c(c1)N(c1nc(-c3ccncc3)nc3c1C[S+]([O-])C3)CC2 (centres unmarked) [Compound No. 2-135, N,N-Dimethyl-2-((1-(6-oxido-2-(pyridin-4-yl)-5,7-dihydrothieno[3,4-d]pyrimidin-4-yl)indolin-6-yl)oxy)acetamide]	97	< 100 nM
CN(C)C(=O)COc1ccc2c(c1)N(c1nc(-c3ccc(F)c(F)c3)nc3c1C[S+]([O-])C3)CC2 (centres unmarked) [Compound No. 2-40, 2-((1-(2-(3,4-Difluorophenyl)-6-oxido-5,7-dihydrothieno[3,4-d]pyrimidin-4-yl)indolin-6-yl)oxy)-N,N-dimethylacetamide]	119	< 100 nM
O=C(COc1ccc2c(c1)N(c1nc(-c3ccncc3)nc3c1C[S+]([O-])C3)CC2)N1CCC1 (centres unmarked) [Compound No. 2-134, 1-(Azetidin-1-yl)-2-((1-(6-oxido-2-(pyridin-4-yl)-5,7-dihydrothieno[3,4-d]pyrimidin-4-yl)indolin-6-yl)oxy)ethanone]	77	< 100 nM
CN(C)C(=O)COc1ccc2c(c1)N(c1nc(-c3ccccc3C(F)(F)F)nc3c1C[S+]([O-])C3)CC2 (centres unmarked) [2-97, N,N-Dimethyl-2-[[1-[6-oxo-2-[2-(trifluoromethyl)-phenyl]-5,7-dihydro-thieno[3,4-d]pyrimidin-4-yl]-2,3-dihydro-1H-indol-6-yl]oxy]-acetamide]	93	100 to 1000 nM
